# Source: US20040247696A1, “Methods of using electron active compounds for managing conditions afflicting mammals” (priority 2001, published 2004)
# Key:
# salmonella = assay: AOAC culture test, salmonella-contaminated aqueous solutions; assay type: cell-based; settings: ten minutes exposure
# Procedure: Unless otherwise indicated, antimicrobial evaluations of the various fluorinator compounds tested were performed versus control samples in cultures in accordance with the protocol as set forth in AOAC (15th) 1990:965:13 at colony densities indicated in the examples.
# Aqueous solutions were prepared having a salmonella contamination at a cell density of about 500,000 cfu/mL. Two solutions of XeF2 were prepared: one as a 1% solution in 85% phosphoric acid stabilizer, and a second solution containing no stabilizer. The materials were cultured versus controls at concentrations of about 2 ppm and about 4 ppm XeF2 and at a pH of about 9.
# coliform = assay: AOAC culture test, coliform-contaminated water; assay type: cell-based; settings: about 2 PPM XeF2 + about 20 PPM KPS, pH about 7, 37.4 cfu/mL
# Procedure: These and other aspects of the present invention may be more fully understood with reference to the following examples, which are merely illustrative of the preferred embodiments of the present invention, and are not to be construed as limiting the invention, the scope of which is defined by the appended claims. Unless otherwise indicated, antimicrobial evaluations of the various fluorinator compounds tested were performed versus control samples in cultures in accordance with the protocol as set forth in AOAC (15th) 1990:965:13 at colony densities indicated in the examples.
# Contaminated water was prepared and measured to have AOAC coliform counts averaging 37.4 colony forming units per milliliter (cfu/mL). The water was treated by first adding crystal potassium monopersulfate (KPS) stabilizer, commercially available from E.I. DuPont de Nemours & Co. Corp. as OXONE®, and xenon difluoride (XeF2). The concentration in solution of the KPS and XeF2 was about 20 PPM and about 2 PPM respectively, and the pH of the treated solution was about 7.
# [1] = animals not prone to silver allergies
# Source text: Preferred routes of administration include topically and application to mucosa. Application can be made, for example, digitally or using a suitable applicator.
Compound,"salmonella inhibition (salmonella; about 2 ppm XeF2, pH about 9, about 500,000 cfu/mL)","salmonella inhibition (salmonella; about 4 ppm XeF2, pH about 9, about 500,000 cfu/mL)",coliform inhibition (coliform; 5 minutes exposure),coliform inhibition (coliform; 10 minutes exposure),Ill effects or irritation on application to the skin [1]
"F[Xe]F [XeF2, xenon difluoride]",about 13.2%,about 96.4%,about 73%,about 77%,
"[Ag+].[Ag+].[Ag+].[Ag+].[O-2].[O-2].[O-2].[O-2] [Ag4O4, tetrasilver tetroxide]",,,,,without any ill effects or evidence of irritation
